These results are taken from paper PMC117120 (BMC Biochemistry, 2002).

Each structure is given as a SMILES string. Changes are numbered by the printed parent chain. Values joined by “and” are separate entries in the source; they are usually repeats but may differ in a detail not shown here. Identical values can stand only once.

For assay [1], the target named is T1, V141A mutant mouse 5-HT3ASR (Mus musculus, UniProt P23979, V142A).
T1 sequence (P23979 24-483 isoform P23979-2 V142A): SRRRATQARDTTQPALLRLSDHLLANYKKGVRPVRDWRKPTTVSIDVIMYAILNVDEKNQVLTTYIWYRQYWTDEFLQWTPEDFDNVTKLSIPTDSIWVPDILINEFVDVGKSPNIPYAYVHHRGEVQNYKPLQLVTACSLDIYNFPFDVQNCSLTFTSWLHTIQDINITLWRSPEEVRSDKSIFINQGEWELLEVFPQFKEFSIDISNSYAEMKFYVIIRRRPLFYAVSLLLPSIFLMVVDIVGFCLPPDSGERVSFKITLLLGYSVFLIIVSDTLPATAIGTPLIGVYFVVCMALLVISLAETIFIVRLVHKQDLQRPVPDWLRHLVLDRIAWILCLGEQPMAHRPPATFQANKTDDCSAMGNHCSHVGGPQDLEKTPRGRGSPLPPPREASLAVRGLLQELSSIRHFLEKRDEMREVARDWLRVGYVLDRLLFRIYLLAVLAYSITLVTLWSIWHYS
The experiment in a line: [^3H]granisetron saturation binding, V141A receptor. To be noted: ± SE.

Assay [2] addresses T2, Y142A mutant mouse 5-HT3ASR (Mus musculus, UniProt P23979, Y143A).
T2 sequence (P23979 24-483 isoform P23979-2 Y143A): T1 sequence (P23979 24-483 isoform P23979-2 V142A) with A119V, Y120A
The experiment in a line: [^3H]granisetron saturation binding, Y142A receptor. Conditions: ± SE.

The target of assay [3] is T3, H145A mutant mouse 5-HT3ASR (Mus musculus, UniProt P23979, H146A).
T3 sequence (P23979 24-483 isoform P23979-2 H146A): T1 sequence (P23979 24-483 isoform P23979-2 V142A) with A119V, H123A
The experiment in a line: [^3H]granisetron saturation binding, H145A receptor. Conditions: ± SE.

Assay [4] addresses T4, R146A mutant mouse 5-HT3ASR (Mus musculus, UniProt P23979, R147A).
T4 sequence (P23979 24-483 isoform P23979-2 R147A): T1 sequence (P23979 24-483 isoform P23979-2 V142A) with A119V, R124A
The experiment in a line: [^3H]granisetron saturation binding, R146A receptor. To be noted: ± SE.

Assay [5] addresses T5, K153A mutant mouse 5-HT3ASR (Mus musculus, UniProt P23979, K154A).
T5 sequence (P23979 24-483 isoform P23979-2 K154A): T1 sequence (P23979 24-483 isoform P23979-2 V142A) with A119V, K131A
The experiment in a line: [^3H]granisetron saturation binding, K153A receptor. To be noted: ± SE.

Assay [6] deals with Q150A – K153A mutant mouse 5-HT3ASRs. The experiment in a line: [^3H]granisetron saturation binding, Q150A – K153A receptors.

Turning to `CN1C2CCCC1CC(NC(=O)c1nn(C)c3ccccc13)C2` (stereo not shown) [[^3H]granisetron], the Bmax was 0.32 ± .04 pmol/mg protein in assay [1]; 0.97 ± .14 pmol/mg protein in assay [2]; 0.81 ± .07 pmol/mg protein in assay [3]; 1.0 ± .16 pmol/mg protein in assay [4]; 0.30 pmol/mg protein and 0.30 ± .08 pmol/mg protein in assay [5]. Also, the “Hill coefficient (n)” value in assay [1] is 1.3 ± 0.22; in assay [2], 1.6 ± 0.27; in assay [3], 1.38 ± 0.17; in assay [5], 1.51 ± 0.17. For the same compound, the “decrease in binding affinity (increased Kd), mutant vs wildtype” value in assay [6] is on record as 6 – 8 fold.
